Measured values as given in ChEMBL document CHEMBL1255183, “Role of the phenolic hydroxyl group in the biological activities of simplified analogue of aplysiatoxin with antiproliferative activity” (Bioorg Med Chem Lett, 2010).

Experiments:
[1] = tested on: HCC 2998; experiment: Cytotoxicity against human HCC2998 cells; type: functional
[2] = tested on: PC-3; experiment: Cytotoxicity against human PC3 cells; type: functional
[3] = tested on: MKN-7; experiment: Cytotoxicity against human MKN7 cells; type: functional
[4] = tested on: MDA-MB-231; experiment: Cytotoxicity against human MDA-MB-231 cells; type: functional
[5] = tested on: ACHN; experiment: Cytotoxicity against human ACHN cells; type: functional
[6] = Cytotoxicity against human BSY1 cells; type: functional; details: BSY-1
[7] = tested on: DMS-114; experiment: Cytotoxicity against human DMS114 cells; type: functional
[8] = tested on: MCF7; experiment: Cytotoxicity against human MCF7 cells; type: functional
[9] = tested on: SF-539; experiment: Cytotoxicity against human SF539 cells; type: functional
[10] = target: Protein kinase C beta type (Homo sapiens, UniProt P05771); experiment: Inhibition of [3H]PDBu binding to PKC beta C1A peptide
Chain of Protein kinase C beta type (P05771 whole entry): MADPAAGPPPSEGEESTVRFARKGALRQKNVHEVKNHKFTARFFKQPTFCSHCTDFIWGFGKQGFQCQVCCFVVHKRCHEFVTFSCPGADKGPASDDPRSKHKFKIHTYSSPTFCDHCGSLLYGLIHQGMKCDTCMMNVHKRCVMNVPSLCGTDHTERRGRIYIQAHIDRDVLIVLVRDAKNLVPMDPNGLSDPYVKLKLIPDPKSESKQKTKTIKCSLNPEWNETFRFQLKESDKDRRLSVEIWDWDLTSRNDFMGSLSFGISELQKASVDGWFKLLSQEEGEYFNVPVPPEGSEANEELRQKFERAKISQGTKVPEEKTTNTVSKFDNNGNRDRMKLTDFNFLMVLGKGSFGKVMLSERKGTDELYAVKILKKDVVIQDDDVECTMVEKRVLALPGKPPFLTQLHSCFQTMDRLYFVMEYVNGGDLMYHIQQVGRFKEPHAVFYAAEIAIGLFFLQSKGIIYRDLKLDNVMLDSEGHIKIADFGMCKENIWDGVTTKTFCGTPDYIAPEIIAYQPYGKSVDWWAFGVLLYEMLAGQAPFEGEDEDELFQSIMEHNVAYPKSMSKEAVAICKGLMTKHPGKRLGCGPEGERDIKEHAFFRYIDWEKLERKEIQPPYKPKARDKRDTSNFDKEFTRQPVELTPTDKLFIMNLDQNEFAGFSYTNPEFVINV

[11] = tested on: Raji; experiment: Induction of EBA-early antigen production in human Raji cells at 1 uM; type: cell-based; details: human gammaherpesvirus 4
[12] = target: T1, Protein kinase C delta type (Homo sapiens, UniProt Q05655); experiment: Inhibition of [3H]PDBu binding to PKC delta C1B peptide
T1 sequence (Q05655 whole entry): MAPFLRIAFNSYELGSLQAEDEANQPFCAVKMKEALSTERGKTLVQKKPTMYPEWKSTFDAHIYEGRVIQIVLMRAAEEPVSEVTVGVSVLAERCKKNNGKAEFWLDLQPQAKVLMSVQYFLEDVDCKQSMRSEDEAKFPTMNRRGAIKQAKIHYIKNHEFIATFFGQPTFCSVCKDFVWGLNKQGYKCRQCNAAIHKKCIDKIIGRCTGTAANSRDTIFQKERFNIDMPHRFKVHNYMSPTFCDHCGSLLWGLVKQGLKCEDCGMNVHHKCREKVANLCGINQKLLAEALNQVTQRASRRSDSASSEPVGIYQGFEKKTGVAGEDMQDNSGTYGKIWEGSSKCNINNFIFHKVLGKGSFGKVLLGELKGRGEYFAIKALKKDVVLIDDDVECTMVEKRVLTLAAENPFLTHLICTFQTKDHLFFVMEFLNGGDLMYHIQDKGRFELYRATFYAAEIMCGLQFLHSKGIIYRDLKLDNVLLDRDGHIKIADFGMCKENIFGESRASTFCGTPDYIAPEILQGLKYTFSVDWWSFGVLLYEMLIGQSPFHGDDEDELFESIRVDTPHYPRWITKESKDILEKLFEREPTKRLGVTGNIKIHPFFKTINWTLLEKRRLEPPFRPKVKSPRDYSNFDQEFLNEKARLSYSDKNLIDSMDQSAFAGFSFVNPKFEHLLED

[13] = target: Protein kinase C theta type (Homo sapiens, UniProt Q04759); experiment: Inhibition of [3H]PDBu binding to PKCtheta C1B peptide
Chain of Protein kinase C theta type (Q04759 whole entry): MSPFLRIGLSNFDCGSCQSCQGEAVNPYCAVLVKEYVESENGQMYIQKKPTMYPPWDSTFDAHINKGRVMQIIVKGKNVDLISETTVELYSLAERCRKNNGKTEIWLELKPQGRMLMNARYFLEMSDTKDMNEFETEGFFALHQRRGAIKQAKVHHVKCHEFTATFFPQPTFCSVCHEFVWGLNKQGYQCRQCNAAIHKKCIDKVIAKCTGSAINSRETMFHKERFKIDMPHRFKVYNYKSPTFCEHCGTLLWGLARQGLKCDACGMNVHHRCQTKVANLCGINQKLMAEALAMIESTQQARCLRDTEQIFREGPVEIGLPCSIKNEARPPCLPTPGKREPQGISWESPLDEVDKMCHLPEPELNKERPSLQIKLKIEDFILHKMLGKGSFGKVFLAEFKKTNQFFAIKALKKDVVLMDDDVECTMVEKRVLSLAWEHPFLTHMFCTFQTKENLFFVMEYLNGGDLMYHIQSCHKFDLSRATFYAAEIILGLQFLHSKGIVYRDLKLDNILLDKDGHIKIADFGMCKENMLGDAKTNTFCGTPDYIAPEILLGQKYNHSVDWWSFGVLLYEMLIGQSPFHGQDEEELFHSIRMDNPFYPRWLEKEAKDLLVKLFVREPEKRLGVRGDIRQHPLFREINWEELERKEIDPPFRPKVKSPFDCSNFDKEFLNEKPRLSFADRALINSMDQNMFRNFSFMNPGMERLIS

[14] = tested on: DU-145; experiment: Cytotoxicity against human DU145 cells; type: functional
[15] = tested on: SNB-78; experiment: Cytotoxicity against human SNB78 cells; type: functional
[16] = tested on: LOX IMVI; experiment: Cytotoxicity against human LOXIMVI cells; type: functional
[17] = tested on: SF-268; experiment: Cytotoxicity against human SF268 cells; type: functional
[18] = tested on: Raji; experiment: Inhibition of TPA-induced EBA-early antigen production in human Raji cells at 1 uM; type: cell-based; parameters: scale not given: the % may be the effect or the level left; details: human gammaherpesvirus 4
[19] = tested on: KM12; experiment: Cytotoxicity against human KM12 cells; type: functional
[20] = Cytotoxicity against human RXF631L cells; type: functional; details: RXF 631
[21] = target: Protein kinase C eta type (Homo sapiens, UniProt P24723); experiment: Inhibition of [3H]PDBu binding to PKCeta C1B peptide
Chain of Protein kinase C eta type (P24723 whole entry): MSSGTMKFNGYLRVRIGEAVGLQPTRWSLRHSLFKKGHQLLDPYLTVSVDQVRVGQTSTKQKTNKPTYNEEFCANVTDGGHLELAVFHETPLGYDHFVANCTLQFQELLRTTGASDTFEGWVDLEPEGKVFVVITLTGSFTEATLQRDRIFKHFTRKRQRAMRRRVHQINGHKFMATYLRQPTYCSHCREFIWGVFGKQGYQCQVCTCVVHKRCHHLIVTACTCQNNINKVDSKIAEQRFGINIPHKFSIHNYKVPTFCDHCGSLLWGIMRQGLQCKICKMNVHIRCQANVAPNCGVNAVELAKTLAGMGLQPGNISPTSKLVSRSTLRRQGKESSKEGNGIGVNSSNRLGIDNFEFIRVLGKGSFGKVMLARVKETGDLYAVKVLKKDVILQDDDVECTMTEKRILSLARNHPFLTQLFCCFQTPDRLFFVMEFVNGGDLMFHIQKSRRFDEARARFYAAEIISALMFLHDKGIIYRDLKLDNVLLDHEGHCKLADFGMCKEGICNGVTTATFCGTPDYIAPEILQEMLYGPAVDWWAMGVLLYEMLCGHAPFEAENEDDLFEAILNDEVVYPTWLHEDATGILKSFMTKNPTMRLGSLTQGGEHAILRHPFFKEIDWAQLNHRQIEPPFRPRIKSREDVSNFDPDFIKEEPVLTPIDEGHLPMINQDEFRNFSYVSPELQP

[22] = tested on: DMS-273; experiment: Cytotoxicity against human DMS273 cells; type: functional
[23] = tested on: NCI-H23; experiment: Cytotoxicity against human NCI-H23 cells; type: functional
[24] = tested on: OVCAR-5; experiment: Cytotoxicity against human OVCAR5 cells; type: functional
[25] = Cytotoxicity against human Raji cells assessed as viability at 10^-7 M; type: cell-based; details: read-out: Activity
[26] = tested on: OVCAR-8; experiment: Cytotoxicity against human OVCAR8 cells; type: functional
[27] = target: Protein kinase C alpha type (Homo sapiens, UniProt P17252); experiment: Inhibition of [3H]PDBu binding to PKC alpha C1A peptide
[28] = tested on: Raji; experiment: Inhibition of TPA-induced EBA-early antigen production in human Raji cells at 10^-7 M; type: cell-based; parameters: scale not given: the % may be the effect or the level left; details: human gammaherpesvirus 4
[29] = tested on: St-4; experiment: Cytotoxicity against human St-4 cells; type: functional
[30] = tested on: A549; experiment: Cytotoxicity against human A549 cells; type: functional
[31] = target: Protein kinase C gamma type (Homo sapiens, UniProt P05129); experiment: Inhibition of [3H]PDBu binding to PKC gamma C1A peptide
[32] = tested on: HCT-116; experiment: Cytotoxicity against human HCT116 cells; type: functional
[33] = tested on: OVCAR-3; experiment: Cytotoxicity against human OVCAR-3 cells; type: functional
[34] = target: T2, Protein kinase C epsilon type (Homo sapiens, UniProt Q02156); experiment: Inhibition of [3H]PDBu binding to PKCepsilon C1B peptide
T2 sequence (Q02156 whole entry): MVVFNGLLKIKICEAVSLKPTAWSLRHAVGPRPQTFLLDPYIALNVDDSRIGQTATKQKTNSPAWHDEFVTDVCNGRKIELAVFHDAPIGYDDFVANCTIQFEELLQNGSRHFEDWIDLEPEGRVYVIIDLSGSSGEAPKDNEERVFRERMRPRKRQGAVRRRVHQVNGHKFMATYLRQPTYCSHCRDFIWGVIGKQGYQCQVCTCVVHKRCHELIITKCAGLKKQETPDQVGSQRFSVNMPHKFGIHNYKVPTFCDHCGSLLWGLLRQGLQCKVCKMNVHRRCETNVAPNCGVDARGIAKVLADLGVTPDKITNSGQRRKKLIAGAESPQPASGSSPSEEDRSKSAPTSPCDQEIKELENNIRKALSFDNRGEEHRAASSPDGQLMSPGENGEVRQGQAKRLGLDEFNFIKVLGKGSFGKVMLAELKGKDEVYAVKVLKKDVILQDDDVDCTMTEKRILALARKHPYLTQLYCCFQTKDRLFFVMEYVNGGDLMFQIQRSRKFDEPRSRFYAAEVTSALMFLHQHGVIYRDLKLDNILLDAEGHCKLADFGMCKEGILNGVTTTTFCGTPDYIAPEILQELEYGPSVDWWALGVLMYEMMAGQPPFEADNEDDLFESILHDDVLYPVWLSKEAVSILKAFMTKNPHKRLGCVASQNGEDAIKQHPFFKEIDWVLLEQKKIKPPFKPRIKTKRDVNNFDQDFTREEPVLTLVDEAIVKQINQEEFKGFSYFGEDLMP

[35] = Cytotoxicity against human HBC4 cells; type: functional
[36] = tested on: SF-295; experiment: Cytotoxicity against human SF295 cells; type: functional
[37] = Cytotoxicity against human MKN1 cells; type: functional; details: MKN-1
[38] = tested on: OVCAR-4; experiment: Cytotoxicity against human OVCAR4 cells; type: functional
[39] = tested on: MKN-45; experiment: Cytotoxicity against human MKN45 cells; type: functional
[40] = tested on: U-251; experiment: Cytotoxicity against human U251 cells; type: functional
[41] = target: T1, Protein kinase C delta type; experiment: Inhibition of [3H]PDBu binding to PKC delta C1A peptide
[42] = Cytotoxicity against human Raji cells assessed as viability at 1 uM in presence of TPA; type: cell-based; details: read-out: Activity
[43] = tested on: MKN-28; experiment: Cytotoxicity against human MKN28 cells; type: functional
[44] = tested on: Raji; experiment: Induction of EBA-early antigen production in human Raji cells at 10^-7 M; type: cell-based; details: human gammaherpesvirus 4
[45] = tested on: NCI-H226; experiment: Cytotoxicity against human NCI-H226 cells; type: functional
[46] = tested on: NCI-H522; experiment: Cytotoxicity against human NCI-H522 cells; type: functional
[47] = Cytotoxicity against human Raji cells assessed as viability at 1 uM; type: cell-based; details: read-out: Activity
[48] = tested on: NCI-H460; experiment: Cytotoxicity against human NCI-H460 cells; type: functional
[49] = Cytotoxicity against human Raji cells assessed as viability at 10^-7 M in presence of TPA; type: cell-based; details: read-out: Activity
[50] = tested on: HCT-15; experiment: Cytotoxicity against human HCT15 cells; type: functional
[51] = tested on: SNB-75; experiment: Cytotoxicity against human SNB75 cells; type: functional
[52] = tested on: SK-OV-3; experiment: Cytotoxicity against human SKOV3 cells; type: functional
[53] = tested on: HT-29; experiment: Cytotoxicity against human HT-29 cells; type: functional
[54] = tested on: MKN-74; experiment: Cytotoxicity against human MKN74 cells; type: functional

SMILES: CC1(C)CC[C@@H]2CC(=O)O[C@@H](CO)CC(=O)O[C@@H]3C[C@@H](CCCCc4cccc(O)c4)O[C@@]1(C3)O2
- GI50 [1]: 3.72 µM
- GI50 [2]: 11 µM
- GI50 [3]: 16.6 µM
- GI50 [4]: 2.45 µM
- GI50 [5]: 12 µM
- GI50 [6]: 13.5 µM
- GI50 [7]: 16.2 µM
- GI50 [8]: 19.1 µM
- GI50 [9]: 10.7 µM
- Ki [10]: 0.089 µM
- Activity [11]: 10.4%
- Ki [12]: 0.0074 µM
- Ki [13]: 0.004 µM
- GI50 [14]: 14.1 µM
- GI50 [15]: 19.1 µM
- GI50 [16]: 1.82 µM
- GI50 [17]: 14.8 µM
- Activity [18]: 7.5%
- GI50 [19]: 13.8 µM
- GI50 [20]: 16.2 µM
- Ki [21]: 0.0044 µM
- GI50 [22]: 12.6 µM
- GI50 [23]: 13.2 µM
- GI50 [24]: 11.2 µM
- viability at 0.1 µM [25]: 60%
- GI50 [26]: 19.5 µM
- Ki [27]: 0.063 µM
- Activity [28]: 10.1%
- GI50 [29]: 2.82 µM
- GI50 [30]: 4.79 µM
- Ki [31]: 0.039 µM
- GI50 [32]: 16.2 µM
- GI50 [33]: 16.6 µM
- Ki [34]: 0.025 µM
- GI50 [35]: 0.468 µM
- GI50 [36]: 8.71 µM
- GI50 [37]: 13.8 µM
- GI50 [38]: 17.8 µM
- GI50 [39]: 4.68 µM
- GI50 [40]: 14.8 µM
- Ki [41]: 0.14 µM
- viability at 1 µM [42]: 60%
- GI50 [43]: 18.2 µM
- Activity [44]: 9.4%
- GI50 [45]: 15.5 µM
- GI50 [46]: 13.5 µM
- viability at 1 µM [47]: 60%
- GI50 [48]: 2.51 µM
- viability at 0.1 µM [49]: 60%
- GI50 [50]: 17.4 µM
- GI50 [51]: 15.8 µM
- GI50 [52]: 20.4 µM
- GI50 [53]: 17 µM
- GI50 [54]: 17.4 µM

SMILES: CO[C@@H](CC[C@H](C)[C@H]1O[C@@]23C[C@H](OC(=O)C[C@H]([C@@H](C)O)OC(=O)C[C@](O)(O2)[C@H](C)CC3(C)C)[C@@H]1C)c1cc(O)ccc1Br [APLYSIATOXIN]
- Ki [10]: 0.00045 µM
- Activity [11]: 20.1%
- Ki [12]: 0.00041 µM
- Ki [13]: 0.00016 µM
- Activity [18]: 19.4%
- Ki [21]: 0.00036 µM
- viability at 0.1 µM [25]: 50%
- Ki [27]: 0.0004 µM
- Activity [28]: 17.8%
- Ki [31]: 0.00063 µM
- Ki [34]: 0.0013 µM
- Ki [41]: 0.012 µM
- viability at 1 µM [42]: 40%
- Activity [44]: 18.4%
- viability at 1 µM [47]: 40%
- viability at 0.1 µM [49]: 50%

SMILES: CC1(C)CC[C@@H]2CC(=O)O[C@@H](CO)CC(=O)O[C@@H]3C[C@@H](CCCCc4ccccc4)O[C@@]1(C3)O2
- GI50 [1]: 2.95 µM
- GI50 [2]: 5.5 µM
- GI50 [3]: 11.5 µM
- GI50 [4]: 2.14 µM
- GI50 [5]: 10 µM
- GI50 [6]: 6.76 µM
- GI50 [7]: 14.1 µM
- GI50 [8]: 16.2 µM
- GI50 [9]: 10.5 µM
- Ki [10]: 0.14 µM
- Activity [11]: 10.5%
- Ki [12]: 0.0098 µM
- Ki [13]: 0.0081 µM
- GI50 [14]: 12 µM
- GI50 [15]: 15.8 µM
- GI50 [16]: 6.76 µM
- GI50 [17]: 12.9 µM
- Activity [18]: 13.1%
- GI50 [20]: 13.8 µM
- Ki [21]: 0.012 µM
- GI50 [22]: 10.5 µM
- GI50 [23]: 11.2 µM
- GI50 [24]: 11 µM
- viability at 0.1 µM [25]: 60%
- GI50 [26]: 17.8 µM
- Ki [27]: 0.12 µM
- Activity [28]: 15.2%
- GI50 [29]: 0.891 µM
- GI50 [30]: 3.24 µM
- Ki [31]: 0.08 µM
- GI50 [32]: 12.3 µM
- GI50 [33]: 13.5 µM
- Ki [34]: 0.037 µM
- GI50 [35]: 0.525 µM
- GI50 [36]: 7.24 µM
- GI50 [37]: 12.6 µM
- GI50 [38]: 15.1 µM
- GI50 [39]: 0.813 µM
- GI50 [40]: 12.3 µM
- Ki [41]: 0.13 µM
- viability at 1 µM [42]: 60%
- GI50 [43]: 16.6 µM
- Activity [44]: 9.7%
- GI50 [45]: 11.5 µM
- GI50 [46]: 13.2 µM
- viability at 1 µM [47]: 60%
- GI50 [48]: 1.48 µM
- viability at 0.1 µM [49]: 60%
- GI50 [50]: 16.6 µM
- GI50 [51]: 12 µM
- GI50 [52]: 17 µM
- GI50 [53]: 11.2 µM
- GI50 [54]: 14.8 µM
